From PubChem BioAssay AID328 (DTP/NCI, 2004)
Toxic doses and inconclusive results are not listed.

Tested on: BDF1 mice, P388 leukemia ip, median survival T/C
Assay: NCI In Vivo Anticancer Drug Screen. Data for tumor model P388 Leukemia (intraperitoneal) in B6D2F1 (BDF1) mice
Settings: endpoint: median survival time, higher = longer survival
Summary of the method: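 Each value expresses how treatment altered survival: treated-mouse outcome over vehicle-mouse outcome, both groups bearing the transplanted tumour.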

[1] = dose: 100.0 mg/kg/injection, schedule: Q04DX003 (ip), vehicle: saline with Tween-80

CSc1ccc(NC(=O)CCl)cc1
T/C (dose: 12.5 mg/kg/injection, schedule: Q01DX009 (ip), vehicle: saline with Tween-80): 107 % of control | T/C (dose: 25.0 mg/kg/injection, schedule: Q01DX009 (ip), vehicle: saline with Tween-80): 105 % of control | T/C (dose: 50.0 mg/kg/injection, schedule: Q01DX009 (ip), vehicle: saline with Tween-80): 106 % of control

CCNCc1ccc(OC)cc1
T/C (dose: 25.0 mg/kg/injection, schedule: Q04DX003 (ip), vehicle: saline): 100 % of control | T/C (dose: 50.0 mg/kg/injection, schedule: Q04DX003 (ip), vehicle: saline): 100 % of control | T/C (dose: 100.0 mg/kg/injection, schedule: Q04DX003 (ip), vehicle: saline): 100 % of control

Cc1c2ccc3ccccc3c2c[n+]2ccccc12
T/C (dose: 5.0 mg/kg/injection, schedule: Q01DX009 (ip), vehicle: saline with Tween-80): 118 % of control | T/C (dose: 5.0 mg/kg/injection, schedule: Q04DX003 (ip), vehicle: saline with Tween-80): 108 % of control | T/C (dose: 10.0 mg/kg/injection, schedule: Q01DX009 (ip), vehicle: saline with Tween-80): 86 % of control | T/C (dose: 10.0 mg/kg/injection, schedule: Q04DX003 (ip), vehicle: saline with Tween-80): 108 % of control | T/C (dose: 20.0 mg/kg/injection, schedule: Q04DX003 (ip), vehicle: saline with Tween-80): 116 % of control

CC(C)CCOC(=O)Cc1ccccc1
T/C (dose: 100.0 mg/kg/injection, schedule: Q01DX009 (ip), vehicle: Klucel (hydroxypropylcellulose) (HPC)): 100 % of control | T/C (dose: 100.0 mg/kg/injection, schedule: Q04DX003 (ip), vehicle: Klucel (hydroxypropylcellulose) (HPC)): 90 % of control | T/C (dose: 200.0 mg/kg/injection, schedule: Q01DX009 (ip), vehicle: Klucel (hydroxypropylcellulose) (HPC)): 115 % of control | T/C (dose: 200.0 mg/kg/injection, schedule: Q04DX003 (ip), vehicle: Klucel (hydroxypropylcellulose) (HPC)): 113 % of control | T/C (dose: 400.0 mg/kg/injection, schedule: Q01DX009 (ip), vehicle: Klucel (hydroxypropylcellulose) (HPC)): 115 % of control | T/C (dose: 400.0 mg/kg/injection, schedule: Q04DX003 (ip), vehicle: Klucel (hydroxypropylcellulose) (HPC)): 118 % of control

O=C(C(Br)C(Br)c1ccccc1)C(Br)C(Br)c1ccccc1 (configuration not stated)
T/C (dose: 100.0 mg/kg/injection, schedule: Q01DX009 (ip), vehicle: saline with Tween-80): 104 % of control | T/C (dose: 200.0 mg/kg/injection, schedule: Q01DX009 (ip), vehicle: saline with Tween-80): 104 % of control | T/C (dose: 400.0 mg/kg/injection, schedule: Q01DX009 (ip), vehicle: saline with Tween-80): 100 % of control

COC(COC(N)=O)C1=C(N2CC2)C(=O)C(C)=C(N2CC2)C1=O (configuration not stated)
T/C (dose: 0.03 mg/kg/injection, schedule: Q01DX009 (ip), vehicle: saline): 123 % of control | T/C (dose: 0.12 mg/kg/injection, schedule: Q01DX009 (ip), vehicle: saline): 154 % of control | T/C (dose: 0.25 mg/kg/injection, schedule: Q01DX009 (ip), vehicle: saline): 190 % of control | T/C (dose: 0.5 mg/kg/injection, schedule: Q01DX009 (ip), vehicle: saline): 258 % of control

NC(=O)c1ncc[nH]c1=O
T/C (dose: 50.0 mg/kg/injection, schedule: Q04DX003 (ip), vehicle: saline with Tween-80): 100 % of control | T/C [1]: 100 % of control | T/C (dose: 200.0 mg/kg/injection, schedule: Q04DX003 (ip), vehicle: saline with Tween-80): 105 % of control

Nc1nc(N)c2nc(Sc3ccc(Cl)cc3)c(-c3ccccc3)nc2n1
T/C [1]: 88 % of control | T/C (dose: 400.0 mg/kg/injection, schedule: Q04DX003 (ip), vehicle: saline with Tween-80): 99 % of control

C=C(C(=O)OC1CC2CCC(C1)N2C)c1ccccc1 (configuration not stated)
T/C (dose: 1.25 mg/kg/injection, schedule: Q01DX009 (ip), vehicle: saline): 100 % of control | T/C (dose: 2.5 mg/kg/injection, schedule: Q01DX009 (ip), vehicle: saline): 100 % of control | T/C (dose: 5.0 mg/kg/injection, schedule: Q01DX009 (ip), vehicle: saline): 100 % of control | T/C (dose: 10.0 mg/kg/injection, schedule: Q01DX009 (ip), vehicle: saline): 90 % of control

CCOC1=NCCCCC1
T/C (dose: 50.0 mg/kg/injection, schedule: Q01DX009 (ip), vehicle: saline): 98 % of control | T/C (dose: 100.0 mg/kg/injection, schedule: Q01DX009 (ip), vehicle: saline): 95 % of control | T/C (dose: 200.0 mg/kg/injection, schedule: Q01DX009 (ip), vehicle: saline): 98 % of control | T/C (dose: 400.0 mg/kg/injection, schedule: Q01DX009 (ip), vehicle: saline): 98 % of control
